Laboratory results as given in patent US8609655B2, “Calcimimetic compound for use in the treatment of epithelial injury” (Amgen Inc., priority 2008, dated 2013).
Each block holds one compound with its values, some of them ahead of it.

Assays:
[1] = test system: ileal villi; test: Ischemic injury and Trypan Blue exclusion in ileal villi; type: cell-based, rat; conditions: 5 min of 100 nM compound A; 30 min 100% N2; without calcimimetic greater than 60% uptake
Description: Individual villi were transferred to the stage of an inverted microscope where they were perfused with 37° C. HEPES Ringer solution that was bubbled with 100% O2. After the 5 minute equilibration period villi were exposed to a HEPES Ringer solution that had been bubbled with 100% N2. In one series Trypan Blue a non membrane permeant dye used for assessment of membrane integrity was added to the bath (0.1 mM Trypan Blue concentration dissolved directly into the bath solution, either 100% O2 or 100% N2). Images were then recorded at sequential time points using DIC optics at 60× Magnification using a Cooled CCD camera and Metafluor Image acquisition and analysis software. Final data was acquired at 30 min from start of perfusion for all groups. The number of Trypan blue positive cells were counted and a number recorded for each villi under each condition. After 30 minutes of exposure to each experimental solution the number of Trypan Blue positive cells was recorded from a blinded observer. The final number of positive cells for each villi was recorded. The data for each villi with a minimum of 7 cells per villi were then pooled and recorded. A numeric mean was then given for the summation of all the cellular data from each villi and from each animal. For the studies presented there were 7 cells per villi, 5 villi per animal and 5 animals in each group. […]

[2] = test system: isolated ileal villi; test: Ischemic injury (100% N2) and intracellular calcium (FLUO-4) in isolated ileal villi; type: cell-based; conditions: 5 min exposure to 100 nM compound A; rat ileal villi; without calcimimetic sustained increase greater than 200% of initial value
Description: Male (Casr^+/+;Gcm2^−/−) or CaSR knockout (Casr^−/−;Gcm2^−/−) mice weighing 22-27 grams (upper panel) or male Sprague-Dawley rats weighing 220-275 grams (lower panel) were allowed free access to water and food prior to experimentation. The animals were exposed to an overdose of isofluorane and the ileum was removed. The ileum was then cut into 4 cm long sections and each section was placed in EDTA (20 mM) to isolate individual villi for 20 minutes at 37° C. After this digestion period the villi were placed in a HEPES-Ringer Solution that was bubbled with 100% O2 and were kept in this solution at 4° C. until use. All mice were generated at Yale University from a breeding colony. Male Sprague-Dawley rats were purchased from Charles River Laboratories Inc. (Wilmington, Mass.). […]
Following isolation individual villi were placed on coverslips and loaded with the calcium indicator dye FLUO4-AM (10 μM) (Invitrogen, Oregon USA) for 15 minutes. […] Images were recorded for 20-30 minutes using DIC optics at 60× Magnification with a Cooled CCD camera and Metamorph Image acquisition and analysis software.
The increase in intracellular Ca^2+ is plotted as arbitrary fluorescent units (AFU) with higher numbers of AFU representing an increase in intracellular Ca^2+. The data for each villi with a minimum of 7 cells per villi were then pooled and recorded. […]

[3] = test system: colonic crypts; test: Ischemic injury (100% N2) and intracellular calcium in colonic crypts; type: cell-based; conditions: 5 min prepulse with 100 nM compound A; rat colonic crypts
[4] = test system: serum total calcium; test: Serum total calcium in cutaneous wound study; type: in vivo, mouse; conditions: Compound B 3 mg/kg daily, female balb/c mice; vehicle 10.2-10.9 mg/dL
[5] = test system: wound injury RNA biomarkers (wound tissue); test: Wound injury RNA biomarkers by quantitative PCR in full-thickness cutaneous wound injury model; type: in vivo, mouse; conditions: 3 mg/kg, drug over vehicle, n=5
Description: See Zoog S J et al. Cytometry A. (2009) March; 75(3): 189-98. The impact of calcimimetic treatment on gene mRNA biomarkers was assessed by quantitative PCR. For wound injury RNA biomarker exploration, female balb/c mice were randomly divided and treated with Compound B (3 mg/kg, n=5) or vehicle (20% Captisol in water, n=5) the day before cutaneous wounding and each subsequent day after until the termination of the studies. All mice received a 3 mm diameter full-thickness punch wound on day zero. On day 1 and day 3 post-injury, a 6 mm diameter skin biopsy was made over the original 3 mm wound and the wound tissue collected for RNA analysis. RNA was isolated using the Trizol reagent (Invitrogen) following manufacturer's instruction. 10 ng of total RNA was added to a single well at the final volume of 10 ul in 1×ABI (Applied Biosystems) Taqman qRT-PCR mixture and run on an ABI 7900 HT Real Time PCR system. For data analysis, the gene expression profile of each sample was first determined based on a control gene, Hprt1, using ABI SDS2.1 software. The signal of each sample was normalized further with Actb, Gapdh, Hprt1, and Rpl27. The biomarkers of wound injury, inflammation and repair that were dynamically affected by Compound B on day 1 and day 3 compared to vehicle control are shown in Table 2. Calcimimetic Compound B affected inflammatory genes, and genes involved in remodeling and repair. Specifically, key inflammatory cytokines such as IL-1a and TNF that may promote cell death were affected by Compound B. Genes involved in inflammation and repair that were affected included: tryptase, TIMP-3, and MMP13. Genes involved in promoting cell survival included: VEGFa, TGFb1, eNOS, and PDGFRb. Immune cell related genes included: M-CSF, TLR-7 and CD3. Other relevant genes included: ITGA3 and PRG-1. […] Table 2 represents the fold increase of drug-induced quantitative change in the gene over vehicle as determined by PCR analysis (n=5 in each drug or vehicle treated cohort).

[6] = Plasma level of calcimimetic in cutaneous wound study; type: in vivo, mouse; conditions: Compound B 3 mg/kg daily, female balb/c mice, over the course of the study

SMILES: COc1cccc([C@@H](C)NCCCc2ccccc2Cl)c1 [Compound A, 3-(2-chlorophenyl)-N-((1R)-1-(3-(methyloxy)phenyl)ethyl)-1-propanamine]
cellular uptake of Trypan Blue [1]: prevented uptake of Trypan Blue
change in intracellular calcium following exposure to 100% N2 [2]: no increase in calcium
change in intracellular calcium following exposure to 100% N2 [3]: no increase in calcium

average plasma level [6]: 20 to 36 ng/mL
SMILES: COc1ccc(CNC(C)c2ccccc2)cc1-c1ccc(C(F)(F)F)cc1 (centres unmarked) [Compound B, N-((6-(methyloxy)-4′-(trifluoromethyl)-1,1′-biphenyl-3-yl)methyl)-1-phenylethanamine]
serum total calcium level [4]: 7.21 to 7.9 mg/dL
Fold Increase (C/V) CD3 RNA ([5]; Day 1 post-injury): 2.90 fold
Fold Increase (C/V) IL-1a RNA ([5]; Day 1 post-injury): 1.78 fold
Fold Increase (C/V) ITGA3 RNA ([5]; Day 1 post-injury): 4.89 fold
Fold Increase (C/V) M-CSF RNA ([5]; Day 1 post-injury): 2.13 fold
Fold Increase (C/V) MMP13 RNA ([5]; Day 1 post-injury): 2.78 fold
Fold Increase (C/V) PDGFRb(CD140) RNA ([5]; Day 1 post-injury): 0.67 fold
Fold Increase (C/V) PRG-1 RNA ([5]; Day 1 post-injury): 3.03 fold
Fold Increase (C/V) TGFB1 RNA ([5]; Day 1 post-injury): 4.17 fold
Fold Increase (C/V) TIMP-3 RNA ([5]; Day 1 post-injury): 4.48 fold
Fold Increase (C/V) TLR-7 RNA ([5]; Day 1 post-injury): 2.20 fold
Fold Increase (C/V) TNFR(p75) RNA ([5]; Day 1 post-injury): 1.62 fold
Fold Increase (C/V) TNFalpha RNA ([5]; Day 1 post-injury): 1.26 fold
Fold Increase (C/V) Tryptase b2 (MCP-6) RNA ([5]; Day 1 post-injury): 1.02 fold
Fold Increase (C/V) VEGFa RNA ([5]; Day 1 post-injury): 1.53 fold
Fold Increase (C/V) eNOS RNA ([5]; Day 1 post-injury): 5.41 fold
Fold Increase (C/V) CD3 RNA ([5]; Day 3 post-injury): 0.88 fold
Fold Increase (C/V) IL-1a RNA ([5]; Day 3 post-injury): 3.44 fold
Fold Increase (C/V) ITGA3 RNA ([5]; Day 3 post-injury): 1.78 fold
Fold Increase (C/V) M-CSF RNA ([5]; Day 3 post-injury): 2.13 fold
Fold Increase (C/V) MMP13 RNA ([5]; Day 3 post-injury): 1.90 fold
Fold Increase (C/V) PDGFRb(CD140) RNA ([5]; Day 3 post-injury): 1.42 fold
Fold Increase (C/V) PRG-1 RNA ([5]; Day 3 post-injury): 4.12 fold
Fold Increase (C/V) TGFB1 RNA ([5]; Day 3 post-injury): 0.92 fold
Fold Increase (C/V) TIMP-3 RNA ([5]; Day 3 post-injury): 1.62 fold
Fold Increase (C/V) TLR-7 RNA ([5]; Day 3 post-injury): 2.39 fold
Fold Increase (C/V) TNFR(p75) RNA ([5]; Day 3 post-injury): 1.62 fold
Fold Increase (C/V) TNFalpha RNA ([5]; Day 3 post-injury): 3.83 fold
Fold Increase (C/V) Tryptase b2 (MCP-6) RNA ([5]; Day 3 post-injury): 0.95 fold
Fold Increase (C/V) VEGFa RNA ([5]; Day 3 post-injury): 0.61 fold
Fold Increase (C/V) eNOS RNA ([5]; Day 3 post-injury): 0.46 fold
